According to patent US4590193A, “3-(2-(4-phenylpiperazinylethyl)anilino)-isobenzofuranones, their method of preparation and their use as antihypertensive and antiallergic drugs” (Societe Cortial, S.A., priority 1982, dated 1986):

Tests used:
[1] = test system: cutaneous reactions induced by serotonin; assay: Cutaneous reactions induced by serotonin; assay type: in vivo, rats; settings: oral, rat
Experimental: (§1) The products of this invention were administered orally to rats in the model of the cutaneous reactions. These reactions were induced by intradermal administration of histamine, serotonin, or the 48/80 compound. The activity of these products is expressed as the percentage of reduction in the amount of blue dye having diffused at the injection point, and the obtained values for ED50 expressed in mg/kg are given in Table VI.

[2] = test system: bronchospasm induced by a 0.3% histamine aerosol; assay: In vivo antihistamine activity: bronchospasm induced by histamine aerosol in awake guinea pig; settings: 10 mg/kg oral in Tween
Experimental: The in vivo antihistamine activity is determined in the awake guinea pig by testing the bronchospasm induced by a 0.3% histamine aerosol. The antihistaminic activity of the present products is tested upon their oral administration in Tween.

[3] = biological target: T1, contractions induced by histamine on a guinea pig ileum (Cavia porcellus, UniProt P31389); assay: In vitro antihistamine activity: inhibition of histamine-induced contractions of guinea pig ileum; assay type: cell-based; settings: for Kb: competitive antagonism of histamine, read-out: pA2 (converted); for IC50: histamine 10^-8 g/l
T1 construct: on a guinea pig ileum; from tissue; host or cells: isolated guinea pig ileum
Experimental: The antagonist is administered at the same time as the agonist or before. In the latter case, the time of contact between the antagonist and the organ isolated before the introduction of the agonist is shown in Table III.

[4] = test system: cutaneous passive anaphylaxis; assay: Antiallergic activity: cutaneous passive anaphylaxis; assay type: in vivo, Sprague Dawley rats; settings: po; per os, rat, reduction of Evans blue diffused
Experimental: The antiallergic activity has been determined in Sprague Dawley rats by the test for cutaneous passive anaphylaxis. Anaphylaxis is induced by the intradermal administration of a serum rich in IgE, followed 24 hours later by the intravenous injection of a solution containing ovalbumin and Evans blue. The activity of the products to be tested, administered per os, is estimated as the percentage of reduction in the amount of Evans blue having diffused at the injection point. Table VI provides the ED50 expressed in mg/kg of certain products of this invention.

[5] = test system: cutaneous reactions induced by histamine; assay: Cutaneous reactions induced by histamine; assay type: in vivo, rats; settings: oral, rat
Experimental: as §1

[6] = test system: contractions induced by serotonin on an isolated guinea pig ileum; assay: In vitro antiserotonin activity: inhibition of serotonin-induced contractions of isolated guinea pig ileum; assay type: cell-based; settings: Cavia porcellus, serotonin 5.10^-7 g/ml
[7] = Oral toxicity (mortality), intragastric administration; settings: mouse, in vivo, read-out: percentage of mortality
Experimental: (§2) The mortality induced by these substances was determined by using Swiss mice which were free of specific pathogenic organisms. The animals were kept in an air conditioned room for 24 to 48 hours prior to the beginning of the experiments. The substances were solubilized in Tween and administered either intragastrically or intraperitoneally.

[8] = Intraperitoneal toxicity (mortality, LD50); settings: mouse, in vivo, ip; for mortality: read-out: percentage of mortality; for LD50: Bliss method
Experimental: as §2

[9] = test system: cutaneous reactions induced by the 48/80 compound; assay: Cutaneous reactions induced by 48/80 compound; assay type: in vivo, rats; settings: oral, rat
Experimental: as §1

[10] = test system: motility; assay: Effect on motility in mice (actimeter), sedative; assay type: in vivo; settings: Mus musculus, oral, read-out: ED50 as a sedative (motility)
Experimental: (§3) When administered orally to spontaneously hypertensive rats at a rate of 50 mg/kg every 12 hours for five days, COR 34 41 causes a drop in the AP. The AP becomes stable at the end of the treatment, at a value of about 18 mm Hg below its initial value. The effect on motility when giving the present substances orally to mice, was tested by using an actimeter.

[11] = test system: Swiss mice; settings: 14 days of observation; 20 wt. % "Tween" solution; range of lethal doses 946-1459; cited from earlier work
[12] = test system: spontaneously hypertensive awake rat; assay: Antihypertensive activity in spontaneously hypertensive awake rat, oral; assay type: in vivo
Experimental: In the spontaneously hypertensive awake rat the compound COR 34 41 causes a drop in AP of 18.8% at 25 mg/kg per os, and it causes a drop in AP of 19.3% at 50 mg/kg. The AP returns to normal at the end of an hour, at a dosage of 25 mg/kg, and at the end of 5 hours with a dosage of 50 mg/kg.
The compound COR 34 42 causes a AP drop of 15.6% at a dose of 50 mg/kg per os. The AP returns to normal at the end of 5 hours.

[13] = test system: spontaneously hypertensive rats; assay: Antihypertensive activity in spontaneously hypertensive rats, repeated oral administration; assay type: in vivo, rat; settings: 50 mg/kg orally every 12 hours for five days
Experimental: as §3

[14] = no time of contact printed (antagonist given at the same time as agonist)

T1 sequence (P31389 whole entry): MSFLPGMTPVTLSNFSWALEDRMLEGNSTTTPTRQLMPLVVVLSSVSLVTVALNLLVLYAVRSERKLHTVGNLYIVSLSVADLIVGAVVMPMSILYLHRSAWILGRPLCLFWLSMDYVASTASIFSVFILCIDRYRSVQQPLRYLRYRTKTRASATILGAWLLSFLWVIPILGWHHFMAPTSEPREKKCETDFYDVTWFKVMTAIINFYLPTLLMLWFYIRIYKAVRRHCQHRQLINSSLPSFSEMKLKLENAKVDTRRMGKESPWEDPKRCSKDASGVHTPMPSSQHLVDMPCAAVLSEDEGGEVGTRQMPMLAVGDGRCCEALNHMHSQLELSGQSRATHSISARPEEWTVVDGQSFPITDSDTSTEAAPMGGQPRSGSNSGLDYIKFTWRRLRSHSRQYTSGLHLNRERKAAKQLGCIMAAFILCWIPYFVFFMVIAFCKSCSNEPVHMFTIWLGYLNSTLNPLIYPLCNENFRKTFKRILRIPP

COc1ccc2c(c1OC)C(=O)OC2Nc1ccccc1CCN1CCN(c2ccc(F)cc2)CC1 (stereo not drawn) [COR 34 43, 6,7-dimethoxy-3-(2-(4-p-fluorophenylpiperazinylethyl)-anilino)isobenzofuranone]
ED50 [1]: 17.1 mg/kg | % of animals protected at 1 h [2]: 90% | % of animals protected at 6 h [2]: 50% | Kb [3]: 10.7 nM | IC50 [3, 14]: 3530 nM | ED50 [4]: 6.6 mg/kg | ED50 [5]: 9.1 mg/kg | IC50 ([6]; time of contact 3 mm): 20500 nM | mortality ([7]; 1000 mg/kg): 0% | mortality ([7]; 2000 mg/kg): 0% | mortality ([8]; 500 mg/kg): 0% | mortality ([8]; 800 mg/kg): 0% | mortality ([8]; 1000 mg/kg): 0% | ED50 [9]: 11.1 mg/kg

COc1ccc2c(c1OC)C(=O)OC2Nc1ccccc1CCN1CCN(c2ccccc2C)CC1 (stereo not drawn) [COR 34 48]
ED50 [10]: 9 mg/kg | % of animals protected at 1 h [2]: 40% | % of animals protected at 6 h [2]: 10% | IC50 ([3]; time of contact 5 mm): 55 nM | IC50 ([6]; time of contact 5 mm): 6460 nM | mortality ([7]; 1000 mg/kg): 0% | mortality ([7]; 2000 mg/kg): 0% | mortality ([8]; 500 mg/kg): 0% | mortality ([8]; 1000 mg/kg): 0%

COc1ccc2c(c1OC)C(=O)OC2Nc1ccccc1CCN1CCN(c2ccccc2)CC1 (stereo not drawn) [COR 34 47, 6,7-dimethoxy-3-(2-(4-phenylpiperazinylethyl)anilino)isobenzofuranone]
% of animals protected at 1 h [2]: 20% | % of animals protected at 6 h [2]: 0% | IC50 ([3]; time of contact 3 mm): 29 nM | IC50 ([6]; time of contact 3 mm): 19700 nM | mortality ([7]; 1000 mg/kg): 0% | mortality ([7]; 2000 mg/kg): 0% | mortality ([8]; 500 mg/kg): 0% | mortality ([8]; 1000 mg/kg): 0%

O=C1OC(Nc2ccccc2CCN2CCN(c3ccc(F)cc3)CC2)c2ccccc21 (stereo not drawn) [COR 34 37, 3-(2-(4-fluorophenylpiperazinylethyl)anilino)isobenzofuranone]
ED50 [1]: 7.9 mg/kg | % of animals protected at 1 h [2]: 70% | % of animals protected at 6 h [2]: 70% | Kb [3]: 13.8 nM | IC50 ([3]; time of contact 3 mm): 15.5 nM | ED50 [4]: 6.4 mg/kg | ED50 [5]: 9.3 mg/kg | IC50 ([6]; time of contact 5 mm): 22700 nM | mortality ([7]; 750 mg/kg): 0% | mortality ([7]; 1000 mg/kg): 10% | mortality ([7]; 2000 mg/kg): 50% | mortality ([8]; 500 mg/kg): 20% | mortality ([8]; 1000 mg/kg): 60% | ED50 [9]: 9.4 mg/kg

O=C1OC(Nc2ccccc2CCN2CCN(c3ccccc3)CC2)c2ccccc21 (stereo not drawn) [COR 34 30, 3-(2-(4-phenylpiperazinylethyl)anilino)-isobenzofuranone]
ED50 [10]: ~50 mg/kg | ED50 [1]: 13.2 mg/kg | % of animals protected at 1 h [2]: 60% | % of animals protected at 6 h [2]: 40% | Kb [3]: 20.4 nM | IC50 [3, 14]: 1040 nM | ED50 [4]: 3.8 mg/kg | ED50 [5]: 12.1 mg/kg | IC50 ([6]; time of contact 5 mm): 9330 nM | mortality ([7]; 1000 mg/kg): 0% | mortality ([7]; 2000 mg/kg): 0% | mortality ([7]; 3000 mg/kg): 10% | mortality ([8]; 100 mg/kg): 0% | mortality ([8]; 200 mg/kg): 10% | mortality ([8]; 300 mg/kg): 0% | mortality ([8]; 500 mg/kg): 0% | ED50 [9]: 11.2 mg/kg

Nc1ccccc1CCN1CCN(c2ccccc2)CC1 [product of Example 1, 2-(4-phenylpiperazinylethyl)aniline]
LD50 [11]: 1175 mg/kg

COc1ccc2c(c1OC)C(=O)OC2Nc1ccccc1CCN1CCN(c2ccc(Cl)cc2)CC1 (stereo not drawn) [COR 34 42, 3-(2-(4-p-chlorophenylpiperazinylethyl)-aniline)-6,7-dimethoxyisobenzofuranone]
AP returns to normal at the end of ([12]; 50 mg/kg per os): 5 h | drop in AP ([12]; 50 mg/kg per os): 15.6% | ED50 [10]: 10 mg/kg | IC50 ([3]; time of contact 5 mm): 33 nM | ED50 [4]: 14.8 mg/kg | mortality ([7]; 1000 mg/kg): 0% | mortality ([7]; 2000 mg/kg): 0%

CC(CN1c2ccccc2Sc2ccccc21)N(C)C (stereo not drawn) [Promethazine, reference compound]
IC50 ([6]; time of contact 3 mm): 444 nM

COc1ccccc1N1CCN(CCc2ccccc2NC2OC(=O)c3ccccc32)CC1 (stereo not drawn) [COR 34 41]
AP returns to normal at the end of ([12]; 25 mg/kg per os): an hour | drop in AP ([12]; 25 mg/kg per os): 18.8% | AP returns to normal at the end of ([12]; 50 mg/kg per os): 5 h | drop in AP ([12]; 50 mg/kg per os): 19.3% | ED50 [1]: 14 mg/kg | % of animals protected at 1 h [2]: 90% | % of animals protected at 6 h [2]: 60% | Kb [3]: 9.33 nM | IC50 ([3]; time of contact 10 mm): 31.1 nM | ED50 [4]: 4.1 mg/kg | ED50 [5]: 7.9 mg/kg | IC50 ([6]; time of contact 15 mm): 12600 nM | AP below its initial value at the end of the treatment [13]: about 18 mm Hg | mortality ([7]; 750 mg/kg): 0% | mortality ([7]; 1000 mg/kg): 10% | mortality ([7]; 2000 mg/kg): 10% | mortality ([8]; 400 mg/kg): 0% | mortality ([8]; 500 mg/kg): 25% | mortality ([8]; 800 mg/kg): 35% | mortality ([8]; 900 mg/kg): 50% | mortality ([8]; 1000 mg/kg): 70% | LD50 [8]: 873 mg/kg | ED50 [9]: 10.9 mg/kg

COc1ccc(N2CCN(CCc3ccccc3NC3OC(=O)c4ccccc43)CC2)cc1 (stereo not drawn) [COR 34 53, 3-(2-(4-methoxyphenylpiperazinylethyl)anilino)isobenzofuranone]
IC50 ([3]; time of contact 5 mm): ~1500 nM | mortality ([7]; 1000 mg/kg): 0% | mortality ([7]; 2000 mg/kg): 20% | mortality ([8]; 500 mg/kg): 60% | mortality ([8]; 1000 mg/kg): 100% | LD50 [8]: 500 mg/kg

Cc1ccccc1N1CCN(CCc2ccccc2NC2OC(=O)c3ccccc32)CC1 (stereo not drawn) [COR 34 49, 3-(2-(4-(2-methylphenyl)piperazinylethyl)-aniline)isobenzofuranone]
ED50 [10]: 18 mg/kg | % of animals protected at 1 h [2]: 30% | % of animals protected at 6 h [2]: 20% | IC50 ([3]; time of contact 10 mm): 80 nM | mortality ([7]; 1000 mg/kg): 0% | mortality ([7]; 2000 mg/kg): 0% | mortality ([8]; 500 mg/kg): 0% | mortality ([8]; 1000 mg/kg): 20%
